How the values were obtained:
[1] = Inhibition of human PKA using Kemptide as substrate incubated for 40 mins in presence of [gamma-33P]ATP by radiometric scintillation counting analysis
[2] = target: Rho-associated protein kinase 1 (Homo sapiens, UniProt Q13464); assay: Inhibition of recombinant human ROCK1 (17 to 535 residues) using […] as substrate incubated for 40 mins in presence of [gamma-33P]ATP and 10 uM ATP by radiometric scintillation counting analysis
[3] = target: Rho-associated protein kinase 2 (Homo sapiens, UniProt O75116); assay: Inhibition of recombinant human ROCK2 (11 to 552 residues) using KEAKEKRQEQIAKR as substrate incubated for 40 mins in presence of [gamma-33P]ATP and 10 uM ATP by radiometric scintillation counting analysis
Sequence of Rho-associated protein kinase 2 (O75116 whole entry, the tested form may be a part): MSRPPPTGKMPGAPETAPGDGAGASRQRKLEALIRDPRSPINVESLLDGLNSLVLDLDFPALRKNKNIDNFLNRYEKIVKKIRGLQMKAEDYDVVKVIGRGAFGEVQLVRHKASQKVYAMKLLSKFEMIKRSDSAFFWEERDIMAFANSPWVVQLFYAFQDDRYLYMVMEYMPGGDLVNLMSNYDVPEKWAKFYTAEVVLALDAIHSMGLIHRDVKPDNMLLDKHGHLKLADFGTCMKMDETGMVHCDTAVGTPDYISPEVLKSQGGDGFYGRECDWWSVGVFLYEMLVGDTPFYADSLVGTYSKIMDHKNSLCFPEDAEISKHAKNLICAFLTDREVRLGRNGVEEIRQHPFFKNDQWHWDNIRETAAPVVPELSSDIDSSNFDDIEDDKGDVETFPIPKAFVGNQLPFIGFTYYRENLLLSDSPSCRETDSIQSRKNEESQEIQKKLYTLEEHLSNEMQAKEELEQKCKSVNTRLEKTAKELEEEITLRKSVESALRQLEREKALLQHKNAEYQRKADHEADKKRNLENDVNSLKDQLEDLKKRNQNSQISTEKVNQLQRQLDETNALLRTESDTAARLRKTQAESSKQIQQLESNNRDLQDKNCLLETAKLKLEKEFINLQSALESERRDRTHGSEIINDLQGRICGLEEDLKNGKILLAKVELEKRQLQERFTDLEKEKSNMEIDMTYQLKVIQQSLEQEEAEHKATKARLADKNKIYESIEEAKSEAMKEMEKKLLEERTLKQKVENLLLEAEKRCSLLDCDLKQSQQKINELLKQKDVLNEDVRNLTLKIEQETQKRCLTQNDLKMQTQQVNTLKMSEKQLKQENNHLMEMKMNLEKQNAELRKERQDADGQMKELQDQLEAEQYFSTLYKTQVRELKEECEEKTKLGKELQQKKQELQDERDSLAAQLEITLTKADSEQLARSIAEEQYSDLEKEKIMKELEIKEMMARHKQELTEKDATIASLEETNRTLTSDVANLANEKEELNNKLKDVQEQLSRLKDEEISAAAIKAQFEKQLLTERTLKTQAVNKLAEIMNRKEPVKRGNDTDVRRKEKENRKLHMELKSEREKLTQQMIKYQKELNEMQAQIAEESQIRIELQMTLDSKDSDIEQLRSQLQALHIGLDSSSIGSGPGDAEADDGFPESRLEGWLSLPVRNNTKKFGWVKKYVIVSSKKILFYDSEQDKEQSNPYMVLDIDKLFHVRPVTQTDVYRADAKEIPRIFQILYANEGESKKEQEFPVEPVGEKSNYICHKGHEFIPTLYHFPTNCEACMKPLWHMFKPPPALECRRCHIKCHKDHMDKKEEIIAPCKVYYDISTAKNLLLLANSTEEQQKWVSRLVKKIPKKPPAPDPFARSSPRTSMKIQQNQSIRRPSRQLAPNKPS

Sequence of Rho-associated protein kinase 1 (Q13464 whole entry, the tested form may be a part): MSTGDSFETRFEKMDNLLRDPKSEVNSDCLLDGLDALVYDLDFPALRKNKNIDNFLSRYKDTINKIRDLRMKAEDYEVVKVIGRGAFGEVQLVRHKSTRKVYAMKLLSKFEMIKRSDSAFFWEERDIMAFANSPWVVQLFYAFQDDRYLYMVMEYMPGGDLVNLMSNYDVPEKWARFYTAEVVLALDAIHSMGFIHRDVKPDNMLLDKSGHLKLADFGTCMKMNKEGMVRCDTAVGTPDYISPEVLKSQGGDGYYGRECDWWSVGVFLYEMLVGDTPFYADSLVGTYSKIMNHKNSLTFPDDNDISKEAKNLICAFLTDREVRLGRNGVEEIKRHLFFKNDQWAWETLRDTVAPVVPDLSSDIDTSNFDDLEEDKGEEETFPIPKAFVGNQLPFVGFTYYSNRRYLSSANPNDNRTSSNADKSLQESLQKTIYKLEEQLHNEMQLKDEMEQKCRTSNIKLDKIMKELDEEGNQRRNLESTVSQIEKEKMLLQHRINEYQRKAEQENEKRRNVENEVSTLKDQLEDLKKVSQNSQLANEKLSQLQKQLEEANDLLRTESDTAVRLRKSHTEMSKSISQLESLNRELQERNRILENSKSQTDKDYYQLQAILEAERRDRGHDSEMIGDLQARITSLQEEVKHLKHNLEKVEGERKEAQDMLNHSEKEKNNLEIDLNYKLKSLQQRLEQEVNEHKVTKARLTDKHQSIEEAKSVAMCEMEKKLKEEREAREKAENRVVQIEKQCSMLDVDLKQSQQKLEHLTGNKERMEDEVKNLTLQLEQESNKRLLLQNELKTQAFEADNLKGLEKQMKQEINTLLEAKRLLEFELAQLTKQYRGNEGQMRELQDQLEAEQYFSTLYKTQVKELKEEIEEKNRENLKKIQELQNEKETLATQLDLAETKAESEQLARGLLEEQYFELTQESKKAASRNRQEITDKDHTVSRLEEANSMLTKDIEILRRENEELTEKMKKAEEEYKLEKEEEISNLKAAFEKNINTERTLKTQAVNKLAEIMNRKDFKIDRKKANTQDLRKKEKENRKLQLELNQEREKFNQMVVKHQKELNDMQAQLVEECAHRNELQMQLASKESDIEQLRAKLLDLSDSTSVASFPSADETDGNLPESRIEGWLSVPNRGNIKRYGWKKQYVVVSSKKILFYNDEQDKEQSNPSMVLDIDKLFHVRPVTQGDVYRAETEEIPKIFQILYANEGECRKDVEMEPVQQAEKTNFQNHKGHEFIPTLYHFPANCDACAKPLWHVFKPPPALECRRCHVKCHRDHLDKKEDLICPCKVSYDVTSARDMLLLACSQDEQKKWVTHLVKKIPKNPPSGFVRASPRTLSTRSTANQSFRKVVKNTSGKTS

SMILES | IC50 [1] [µM] | IC50 [2] [µM] | IC50 [3] [µM]
CN(C)c1ccc(S(=O)(=O)Nc2cccc(NC(=O)COc3ccc4c(=O)ccoc4c3)c2)cc1 | > 10 | 0.803 | 0.263
O=C(COc1ccc2c(=O)ccoc2c1)Nc1cccc(NS(=O)(=O)c2ccc(OC(F)(F)F)cc2)c1 | > 10 | 6.44 | 1.28
CN(C)c1ccc(C(=O)Nc2ccc(NC(=O)COc3ccc4c(=O)ccoc4c3)cc2C(F)(F)F)cc1 | > 10 | > 10 | 7.1
Nc1ccc(C(=O)Nc2cccc(NC(=O)COc3ccc4c(=O)ccoc4c3)c2)cc1 | > 10 | 0.802 | 0.083
CN(C)c1ccc(C(=O)Nc2cccc(NC(=O)COc3ccc4c(c3)CCC(=O)N4)c2)cc1 | > 10 | > 10 | 9.97
CCOc1ccc(C(=O)Nc2cccc(NC(=O)COc3ccc4c(=O)ccoc4c3)c2)cc1 | > 10 | 0.017 | 0.009
Cn1ccc(S(=O)(=O)Nc2cccc(NC(=O)COc3ccc4c(=O)ccoc4c3)c2)n1 | > 10 | > 10 | 1.34
COc1ccc(OCC(=O)Nc2cccc(NC(=O)c3ccc(N(C)C)cc3)c2)cc1OC | > 10 | > 10 | > 10
Cc1cc(C(=O)Nc2cccc(NC(=O)COc3ccc4c(=O)ccoc4c3)c2)ccc1C(F)(F)F | > 10 | 0.46 | 0.043
CN(C)c1ccc(C(=O)Nc2ccc(NC(=O)COc3ccc4c(=O)ccoc4c3)cc2)cc1 | > 10 | 1.05 | 0.302
O=C(COc1ccc2c(=O)ccoc2c1)Nc1cccc(NC(=O)c2ccc(C(=O)O)cc2)c1 | > 10 | 6.89 | 2.03
CN(C)c1ccc(C(=O)Nc2cc(NC(=O)COc3ccc4c(=O)ccoc4c3)cc(C(F)(F)F)c2)cc1 | > 10 | > 10 | > 10
COC(=O)c1ccc(C(=O)Nc2cccc(NC(=O)COc3ccc4c(=O)ccoc4c3)c2)cc1 | > 10 | 0.072 | 0.029
COc1cc(OCC(=O)Nc2cccc(NC(=O)c3ccc(N(C)C)cc3)c2)ccc1C=O | > 10 | 3.74 | 0.306
Cc1ccc(NC(=O)COc2ccc3c(=O)ccoc3c2)cc1NC(=O)c1ccc(N(C)C)cc1 | > 10 | 1.04 | 0.169
O=C(COc1ccc2c(=O)ccoc2c1)Nc1cccc(NC(=O)c2ccc(OC(F)(F)F)cc2)c1 | > 10 | 0.869 | 0.077
CC(C)(C)c1ccc(C(=O)Nc2cccc(NC(=O)COc3ccc4c(=O)ccoc4c3)c2)cc1 | > 10 | 0.165 | 0.034
CN(C)c1ccc(C(=O)Nc2cccc(NC(=O)COc3ccc4c(c3)OCCC4=O)c2)cc1 | > 10 | 0.144 | 0.085
Cc1cc(C(=O)Nc2cccc(NC(=O)COc3ccc4c(=O)ccoc4c3)c2)no1 | > 10 | 0.068 | 0.005
Cc1coc2cc(OCC(=O)Nc3cccc(NC(=O)c4ccc(N(C)C)cc4)c3)ccc2c1=O | > 10 | > 10 | 2.15
CN(C)c1ccc(C(=O)Nc2cccc(NC(=O)COc3ccc4c(c3)OCO4)c2)cc1 | > 10 | > 10 | > 10
CCCc1ccc(C(=O)Nc2cccc(NC(=O)COc3ccc4c(=O)ccoc4c3)c2)cc1 | > 10 | 0.143 | 0.014
CN(C)c1ccc(C(=O)Nc2cccc(NC(=O)COc3ccc4c(c3)OCCO4)c2)cc1 | > 10 | > 10 | > 10
CN(C)c1ccc(C(=O)Nc2cccc(NC(=O)COc3ccc4c(c3)NC(=O)CC4)c2)cc1 | > 10 | > 10 | 3.14
CN(C)c1ccc(C(=O)Nc2cc(Br)cc(NC(=O)COc3ccc4c(=O)ccoc4c3)c2)cc1 | > 10 | > 10 | 4.56
COc1cccc(OCC(=O)Nc2cccc(NC(=O)c3ccc(N(C)C)cc3)c2)c1 | > 10 | > 10 | 5.74
O=C(COc1ccc2c(=O)ccoc2c1)Nc1cccc(NC(=O)c2ccc(F)cc2)c1 | > 10 | 0.129 | 0.054
Cc1c(NC(=O)COc2ccc3c(=O)ccoc3c2)cccc1NC(=O)c1ccc(N(C)C)cc1 | > 10 | > 10 | > 10
Cc1cc(NC(=O)COc2ccc3c(=O)ccoc3c2)cc(NC(=O)c2ccc(N(C)C)cc2)c1 | > 10 | > 10 | > 10
Cc1cc(NC(=O)COc2ccc3c(=O)ccoc3c2)ccc1NC(=O)c1ccc(N(C)C)cc1 | > 10 | > 10 | 4.21

The remaining lines, values ahead:

IC50 [1] [µM] | IC50 [2] [µM] | IC50 [3] [µM] | SMILES
> 10 | 0.528 | 0.041 | O=C(COc1ccc2c(=O)ccoc2c1)Nc1cccc(NC(=O)c2cccc([N+](=O)[O-])c2)c1
> 10 | 0.67 | 0.058 | Nc1cccc(C(=O)Nc2cccc(NC(=O)COc3ccc4c(=O)ccoc4c3)c2)c1
> 10 | > 10 | 0.999 | CN(C)c1ccc(C(=O)Nc2ccc(CNC(=O)COc3ccc4c(=O)ccoc4c3)cc2)cc1
> 10 | > 10 | 6.89 | O=C(COc1ccc2c(=O)ccoc2c1)Nc1cccc(NS(=O)(=O)c2ccc(C(F)(F)F)cc2)c1
> 10 | 0.16 | 0.01 | O=C(COc1ccc2c(=O)ccoc2c1)Nc1cccc(NC(=O)c2cnc(C(F)(F)F)s2)c1
> 10 | 0.018 | 0.007 | COc1ccc(C(=O)Nc2cccc(NC(=O)COc3ccc4c(=O)ccoc4c3)c2)cc1
> 10 | 0.445 | 0.098 | CC(=O)c1ccc(OCC(=O)Nc2cccc(NC(=O)c3ccc(N(C)C)cc3)c2)cc1F
> 10 | 0.101 | 0.005 | CC(C)(C)c1cc(C(=O)Nc2cccc(NC(=O)COc3ccc4c(=O)ccoc4c3)c2)no1
> 10 | 0.303 | 0.049 | O=C(COc1ccc2c(=O)ccoc2c1)Nc1cccc(NC(=O)c2ccc(Br)cc2)c1
> 10 | 3.95 | 0.374 | Cc1cc(NC(=O)COc2ccc3c(=O)ccoc3c2)cc(NC(=O)c2ccc(N(C)C)cc2)c1C
> 10 | 1.43 | 0.176 | CCCC(=O)Nc1cccc(NC(=O)COc2ccc3c(=O)ccoc3c2)c1
> 10 | 0.123 | 0.015 | N#Cc1ccc(C(=O)Nc2cccc(NC(=O)COc3ccc4c(=O)ccoc4c3)c2)cc1
> 10 | > 10 | 3.53 | Cc1ccc(NC(=O)c2ccc(N(C)C)cc2)cc1NC(=O)COc1ccc2c(=O)ccoc2c1
> 10 | 0.117 | 0.027 | CN(C)c1ccc(C(=O)Nc2cccc(NS(=O)(=O)COc3ccc4c(=O)ccoc4c3)c2)cc1
> 10 | 0.049 | 0.022 | CN(C)c1ccc(C(=O)Nc2cc(F)cc(NC(=O)COc3ccc4c(=O)ccoc4c3)c2)cc1
> 10 | 0.235 | 0.024 | CCc1ccc(C(=O)Nc2cccc(NC(=O)COc3ccc4c(=O)ccoc4c3)c2)cc1
> 10 | > 10 | 4.16 | Cc1c(OCC(=O)Nc2cccc(NC(=O)c3ccc(N(C)C)cc3)c2)ccc2c(=O)ccoc12
> 10 | 0.183 | 0.022 | Cc1ccc(C(=O)Nc2cccc(NC(=O)COc3ccc4c(=O)ccoc4c3)c2)cc1
> 10 | 1.82 | 0.652 | COc1ccc(OCC(=O)Nc2cccc(NC(=O)c3ccc(N(C)C)cc3)c2)cc1F
> 10 | > 10 | > 10 | CN(C)c1ccc(C(=O)Nc2cccc(NC(=O)COc3ccc4occc(=O)c4c3)c2)cc1
> 10 | > 10 | 0.899 | CC(C)(C)c1ccc(S(=O)(=O)Nc2cccc(NC(=O)COc3ccc4c(=O)ccoc4c3)c2)cc1
9.35 | 0.067 | 0.015 | O=C(COc1ccc2c(=O)ccoc2c1)Nc1cccc(NC(=O)c2ccc([N+](=O)[O-])cc2)c1
> 10 | 0.473 | 0.033 | Cc1nc(C(=O)Nc2cccc(NC(=O)COc3ccc4c(=O)ccoc4c3)c2)cs1
> 10 | 0.532 | 0.066 | NCc1ccc(C(=O)Nc2cccc(NC(=O)COc3ccc4c(=O)ccoc4c3)c2)cc1
> 10 | 2.5 | 0.136 | CC(=O)Nc1cccc(NC(=O)COc2ccc3c(=O)ccoc3c2)c1
3.25 | 0.12 | 0.016 | O=C(COc1ccc2c(=O)ccoc2c1)Nc1cccc(NC(=O)c2ccccc2)c1
